Experimental data published in patent publication US7767671B2, “3-Quinolinecarbonitrile protein kinase inhibitors” (Wyeth, priority 2004, dated 2010).
pIC50: −log10 of the molar value.

Target: T1, recombinant human MEK 1 (MAPKK) / human ERK2 (MAPK) (Homo sapiens, UniProt P28482+Q02750)
T1 construct: GST; made in house
Experiment: Mitogen Activated Protein Kinase (MAPK) test procedure (Mek-Erk coupled)
Assay type: biochemical
Conditions: MEK1-activated ERK2, 33P ATP, peptide substrate
Method: Mitogen Activated Protein Kinase (MAPK) Test Procedure
To evaluate inhibitors of the MAP (mitogen activated protein) kinase a two component coupled standard pharmacological test procedure, which measures phosphorylation of a serine/threonine residue in an appropriate sequence in the substrate in the presence and absence of a putative inhibitor, is used. Recombinant human MEK 1 (MAPKK) is first used to activate recombinant human ERK2 (MAPK) and the activated MAPK (ERK) is incubated with substrate (myelin basic protein peptide (MBPP) or Myc peptide) in the presence of ATP, Mg^+2 and radiolabeled ^33P ATP. The phosphorylated peptide is captured on a P 81 phosphocellulose filter (paper filter or embedded in microtiter plate) ished and counted by scintillation methods.
The peptide substrates used in the assay are MBPP, peptide substrate (APRTPGGRR), or synthetic Myc substrate, (KKFELLPTPPLSPSRR•5 TFA). […]
The reaction is run as follows in 50 mM Tris kinase buffer, pH 7.4 in a reaction volume of 50 ul. […] The filters are briefly air dried before addition of scintillant and samples are counted in the appropriate scintillation counter set up for reading ^33P isotope. […]
The raw data is captured as counts per minute (cpm). […] Mean cpm data is tabulated by group and % inhibition by a test compound is calculated as (corrected cpm control−corrected·cpm sample/control)×100=% inhibition). […]

T1 sequence (P28482 whole entry): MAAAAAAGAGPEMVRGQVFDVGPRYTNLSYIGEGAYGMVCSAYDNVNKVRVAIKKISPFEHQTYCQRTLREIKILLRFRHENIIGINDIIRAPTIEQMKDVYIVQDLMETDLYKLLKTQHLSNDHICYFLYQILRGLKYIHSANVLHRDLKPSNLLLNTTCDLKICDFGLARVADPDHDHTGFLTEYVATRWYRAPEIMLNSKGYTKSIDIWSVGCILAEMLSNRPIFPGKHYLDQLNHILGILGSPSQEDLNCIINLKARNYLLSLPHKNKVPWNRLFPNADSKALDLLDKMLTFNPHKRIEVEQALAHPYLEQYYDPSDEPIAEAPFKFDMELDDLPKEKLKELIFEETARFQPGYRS
T1 sequence (Q02750 whole entry): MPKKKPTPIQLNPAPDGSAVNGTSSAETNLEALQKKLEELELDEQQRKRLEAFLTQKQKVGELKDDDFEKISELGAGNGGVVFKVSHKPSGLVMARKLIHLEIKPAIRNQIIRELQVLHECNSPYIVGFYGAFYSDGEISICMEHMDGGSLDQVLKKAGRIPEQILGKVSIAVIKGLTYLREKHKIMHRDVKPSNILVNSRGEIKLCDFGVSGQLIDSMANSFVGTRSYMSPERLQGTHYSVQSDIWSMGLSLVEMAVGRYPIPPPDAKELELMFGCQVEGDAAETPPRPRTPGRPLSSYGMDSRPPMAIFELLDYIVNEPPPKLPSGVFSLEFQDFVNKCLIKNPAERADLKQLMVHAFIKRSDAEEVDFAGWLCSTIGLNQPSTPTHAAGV

pIC50: 7.35
Structure (SMILES): COc1cc2c(Nc3ccc(Oc4ccccc4)cc3)c(C#N)cnc2cc1OCCN1CCC(N2CCCCC2)CC1 [Example 32, 7-(2-[1,4′]Bipiperidinyl-1′-yl-ethoxy)-6-methoxy-4-(4-phenoxy-phenylamino)-quinoline-3-carbonitrile]
